Experimental data: patent US20120108669A1, “METHOD OF TREATING SLEEP DISORDERS USING EPLIVANSERIN” (SANOFI-AVENTIS, priority 2008, published 2012)

Legend:
[1] = tested on: patients with chronic (primary) insomnia characterized by sleep maintenance difficulties; assay: Long-term studies LTE6217 and LTE6262 together: patient global impression, daytime function, residual effects; assay type: in vivo, human
Text: (§1) The Phase 3 program of development of eplivanserin in the treatment of patients with chronic (primary) insomnia characterized by sleep maintenance difficulties consisted of 3 randomized, double-blind (DB), placebo-controlled, efficacy and safety studies designed to assess the efficacy of eplivanserin on sleep maintenance either using polysomnography (PSG) recordings (6-week study EFC6220) or patient-reported outcome (12-week studies LTE6217 and LTE6262) collected daily on sleep questionnaires.
(§2) They were all double-blind (DB), randomized, placebo-controlled studies. In all studies, treatment period was preceded by a one week, placebo run-in period, designed to check selection criteria for insomnia based on patient reported sleep parameters collected on the daily sleep questionnaires (Studies LTE6217, and LTE6262) or based on PSG recordings during two screening nights in a sleep laboratory (Study EFC6220). Treatment period was followed by a placebo run-out period of 2 weeks designed to assess the effect of abrupt treatment discontinuation.
(§3) Studies LTE6217 and LTE6262 measured the efficacy of eplivanserin in real life conditions of use at home by collecting daily sleep parameters reported by patients through an Interactive Voice Response System (IVRS).

[2] = tested on: patients with chronic (primary) insomnia characterized by sleep maintenance difficulties; assay: Study LTE6217: 12-week patient-reported sleep parameters (daily sleep questionnaire, IVRS); assay type: in vivo, human; conditions: 5 mg/day, MMRM, ITT; for Quality of sleep LS Mean (SEM) / Refreshing quality of sleep LS Mean (SEM) / pr-NAW LS Mean (SEM): mean change
Text: as §1, §2
Studies LTE6217 and LTE6262 measured the efficacy of eplivanserin in real life conditions of use at home by collecting daily sleep parameters reported by patients through an Interactive Voice Response System (IVRS). […]

[3] = tested on: healthy male subjects; assay: Example 2: single-dose cross-over study of sleep (EEG) and daytime functioning; assay type: in vivo, human
Procedure: The effects of eplivanserin or pharmaceutically acceptable salts or esters thereof on sleep and daytime functioning in healthy subjects were examined.
Double-blind, randomized, placebo (PBO)-controlled, 4-period, cross-over study with a 1-2-week washout between each period. Single oral doses of eplivanserin or pharmaceutically acceptable salts or esters thereof 1, 10 and 40 mg and PBO were given to healthy male subjects in either the evening (pm) or the morning (am; n=16). Sleep was assessed objectively using an EEG and subjectively by Leeds Sleep Evaluation Questionnaire. Next-day psychomotor function, memory and arousal were measured objectively via Critical Flicker Fusion (CFF), Choice Reaction Time, Compensatory Tracking and Sternberg memory-scanning tasks. Subjective assessment of drug activity was performed using Line Analogue Rating Scales.

[4] = tested on: patients exposed to eplivanserin; assay: Example 3: diverticulitis in pooled phase 2 and 3 trials; assay type: in vivo, human; conditions: for Incidence of Diverticulitis by sub-group: all eplivanserin doses
Text: Hereafter are the observations made in pooled phase 2 and 3 trials with eplivanserin or pharmaceutically acceptable salts or esters thereof.
The majority of patients were non-elderly, females, and Caucasian with a median age between 47 and 51 years across treatment groups.

[5] = tested on: patients with chronic (primary) insomnia characterized by sleep maintenance difficulties; assay: Study LTE6262: 12-week patient-reported sleep parameters (daily sleep questionnaire, IVRS); assay type: in vivo, human; conditions: 5 mg/day; for Quality of sleep Difference from Placebo LS Mean / Refreshing QoS Difference from Placebo LS Mean / pr-NAW Difference from Placebo LS Mean / Quality of sleep LS Mean / Refreshing QoS LS Mean / pr-NAW LS Mean: MMRM, ITT; for Quality of sleep LS Mean / Refreshing QoS LS Mean / pr-NAW LS Mean: mean change
Text: as §1, §2, §3
In these tables, values are given as an amount of time expressed in minutes and seconds (mm:ss).

[6] = cited from earlier work
[7] = tested on: patients with chronic (primary) insomnia characterized by sleep maintenance difficulties; assay: Study EFC6220: 6-week polysomnography (PSG) study of sleep maintenance; assay type: in vivo, human; conditions: for PSG-NAW (number of awakenings) LS mean: p<0.0001
Text: as §1, §2
Study EFC6220 was designed to measure the pharmacodynamic activity of eplivanserin on sleep maintenance using PSG recordings in a sleep laboratory. Polysomnograms were recorded in standard conditions during 8 hours in bed.

[8] = 5 mg/day, in comparison with placebo, after 6 and 12 weeks
[9] = single oral 1, 10 and 40 mg, morning or evening, P=0.0001 vs PBO
[10] = all Phase 2-3 studies, all doses

SMILES: CN(C)CCO/N=C(/C=C/c1ccc(O)cc1)c1ccccc1F [eplivanserin, (1Z, 2E)-1-(2-fluorophenyl)-3-(4-hydroxyphenyl)-prop-2-en-1-one-O-(2-dimethylaminoethyl)oxime]
- PGI-item 1 [1, 8]: aid to sleep
- PGI-item 3 [1, 8]: increasing duration of sleep
- improvement of activities related to work and hobby activities ([1]; after 12 weeks, Study LTE6262 and meta-analysis of LTE6262 and LTE6217, compared with placebo): positive effect
- "sleepiness in the morning" and "ability to concentrate" ([1]; reported by insomniac patients, compared with placebo): significantly favourable effect
- potential for residual effects (next-day impairment) ([1]; safety analyses): devoid of next-day impairment
- Quality of sleep Difference from Placebo LS Mean ([2]; Week 6): −0.11
- Refreshing quality of sleep Difference from Placebo LS Mean ([2]; Week 6): −0.11
- pr-NAW Difference from Placebo LS Mean ([2]; Week 6): −0.39
- Quality of sleep LS Mean (SEM) ([2]; Week 6): −0.65 (0.02)
- Refreshing quality of sleep LS Mean (SEM) ([2]; Week 6): −0.62 (0.02)
- pr-NAW LS Mean (SEM) ([2]; Week 6): −1.16 (0.04)
- Quality of sleep Difference from Placebo LS Mean ([2]; Week 12): −0.10
- Refreshing quality of sleep Difference from Placebo LS Mean ([2]; Week 12): −0.09
- pr-NAW Difference from Placebo LS Mean ([2]; Week 12): −0.33
- Quality of sleep LS Mean (SEM) ([2]; Week 12): −0.73 (0.03)
- Refreshing quality of sleep LS Mean (SEM) ([2]; Week 12): −0.70 (0.03)
- pr-NAW LS Mean (SEM) ([2]; Week 12): −1.27 (0.04)
- Sleep efficiency (time asleep/time in bed) ([3]; P=0.0004 vs PBO): significantly improved
- number of awakenings ≧120 s ([3]; P=0.03 vs PBO): significantly reduced
- CFF threshold detection ([3]; at all doses): slight decrease
- Times to sleep onset and total sleep time ([3]; in vivo): unaffected
- treatment-emergent AEs ([3]; in vivo): No serious or severe treatment-emergent AEs were reported
- SWS ([3]; regardless of dosage or dose timing (morning or evening)): doubled
- next-day objective psychomotor function or memory tests, subjective ratings of 'hangover' or CNS sedation ([3]; regardless of dose, or am or pm administration): no detrimental effects
- 'deep'/slow-wave sleep (SWS) time [3, 9]: significantly increased
- Stage 2 (light) sleep [3, 9]: decreased
- final outcome of diverticulitis ([4]; 30 patients): Recovery was reported as final outcome in all patients, except 2
- median time to onset of diverticulitis ([4]; 30 patients with diverticulitis): 58 days
- Incidence of Diverticulitis by sub-group ([4]; Age groups (years): <65): 18/2636 (0.7%) (0.41 to 1.08)
- Incidence of Diverticulitis by sub-group ([4]; Age groups (years): >=65): 12/394 (3.0%) (1.58 to 5.26)
- Incidence of Diverticulitis by sub-group ([4]; BMI (kg/m2): 25-30): 17/1292 (1.3%) (0.77 to 2.10)
- Incidence of Diverticulitis by sub-group ([4]; BMI (kg/m2): <25): 6/1121 (0.5%) (0.20 to 1.16)
- Incidence of Diverticulitis by sub-group ([4]; BMI (kg/m2): >=30): 7/617 (1.1%) (0.46 to 2.32)
- Incidence of Diverticulitis by sub-group ([4]; Concomitant drugs that inhibit prostaglandin synthesis: No): 15/2161 (0.7%) (0.39 to 1.14)
- Incidence of Diverticulitis by sub-group ([4]; Concomitant drugs that inhibit prostaglandin synthesis: Yes): 15/869 (1.7%) (0.97 to 2.83)
- Incidence of Diverticulitis by sub-group ([4]; Concomitant opioids: No): 27/2999 (0.9%) (0.59 to 1.31)
- Incidence of Diverticulitis by sub-group ([4]; Concomitant opioids: Yes): 3/31 (9.7%) (2.04 to 25.75)
- Incidence of Diverticulitis by sub-group ([4]; Creatinine clearance at baseline (ml/min): Mild: [50, 80[): 11/669 (1.6%) (0.82 to 2.92)
- Incidence of Diverticulitis by sub-group ([4]; Creatinine clearance at baseline (ml/min): Moderate/Severe: <50): 1/44 (2.3%) (0.06 to 12.02)
- Incidence of Diverticulitis by sub-group ([4]; Creatinine clearance at baseline (ml/min): Normal: >=80 or Missing): 18/2317 (0.8%) (0.46 to 1.23)
- Incidence of Diverticulitis by sub-group ([4]; Gender: Female): 18/1651 (1.1%) (0.65 to 1.72)
- Incidence of Diverticulitis by sub-group ([4]; Gender: Male): 12/1379 (0.9%) (0.45 to 1.52)
- Incidence of Diverticulitis by sub-group ([4]; Medical history of constipation: No): 27/2943 (0.9%) (0.61 to 1.33)
- Incidence of Diverticulitis by sub-group ([4]; Medical history of constipation: Yes): 3/87 (3.4%) (0.72 to 9.75)
- Incidence of Diverticulitis by sub-group ([4]; Medical history of diverticular disease (includes diverticulitis): No): 18/2984 (0.6%) (0.36 to 0.95)
- Incidence of Diverticulitis by sub-group ([4]; Medical history of diverticular disease (includes diverticulitis): Yes): 12/46 (26.1%) (14.27 to 41.13)
- Incidence of Diverticulitis by sub-group ([4]; Medical history of diverticulitis: No): 23/3005 (0.8%) (0.49 to 1.15)
- Incidence of Diverticulitis by sub-group ([4]; Medical history of diverticulitis: Yes): 7/25 (28.0%) (12.07 to 49.39)
- Incidence of Diverticulitis by sub-group ([4]; Race: Asian/Oriental/Other): 0/138
- Incidence of Diverticulitis by sub-group ([4]; Race: Black): 1/162 (0.6%) (0.02 to 3.39)
- Incidence of Diverticulitis by sub-group ([4]; Race: Caucasian): 29/2730 (1.1%) (0.71 to 1.52)
- exposure adjusted incidence rate of diverticulitis [4, 10]: 3.32 patients with an event per 100 patient-years
- patients exposed who developed diverticulitis [4, 10]: 1%
- patients exposed who developed diverticulitis ([4]; all Phase 2-3 studies, all doses, n/N): 30/3030
- cumulative incidence rate of diverticulitis ([4]; at Week 24, all doses): about 1.6%
- time of diverticulitis events after treatment initiation ([4]; clinical trials in patients with sleep disorders): two months on average
- duration of diverticulitis episodes, mean ([4]; from the onset of the event): 23 days
- duration of diverticulitis episodes, median ([4]; from the onset of the event): 17 days
- total episodes of diverticulitis ([4]; in the 30 patients): 39
- non-serious cases of diverticulitis ([4]; of 30 patients): 23
- serious cases of diverticulitis ([4]; of 30 patients): 7
- episodes of diverticulitis of mild intensity ([4]; per Investigator's judgment): Three out of 39
- episodes of diverticulitis of moderate intensity ([4]; per Investigator's judgment): 26/39
- episodes of diverticulitis of severe intensity ([4]; per Investigator's judgment): 10/39
- persistence of effect on sleep maintenance (pr-WASO) ([5]; observed from Day 1): persisted up to 1 year of treatment
- Quality of sleep Difference from Placebo LS Mean ([5]; Week 6): −0.13
- Refreshing QoS Difference from Placebo LS Mean ([5]; Week 6): −0.13
- pr-NAW Difference from Placebo LS Mean ([5]; Week 6): −0.34
- Quality of sleep LS Mean ([5]; Week 6): −0.58
- Refreshing QoS LS Mean ([5]; Week 6): −0.55
- pr-NAW LS Mean ([5]; Week 6): −0.99
- Quality of sleep Difference from Placebo LS Mean ([5]; Week 12): −0.14
- Refreshing QoS Difference from Placebo LS Mean ([5]; Week 12): −0.15
- pr-NAW Difference from Placebo LS Mean ([5]; Week 12): −0.35
- Quality of sleep LS Mean ([5]; Week 12): −0.63
- Refreshing QoS LS Mean ([5]; Week 12): −0.60
- pr-NAW LS Mean ([5]; Week 12): −1.08
- half-life time ([6]; average value): 50 h
- absorption (well absorbed) ([6]; in vivo): > 70%
- sleep onset (PSG-LPS and pr-SOL) ([7]; 5 mg): did not affect sleep onset
- percentage of time spent in sleep Stages 3&4 (slow wave sleep) ([7]; 5 mg/day compared with placebo): increased percentage of time
- sleep Stage 1 ([7]; 5 mg/day compared with placebo): decrease of Stage 1
- PSG-NAW (number of awakenings) LS mean ([7]; Week 3, 5 mg): −1.74
- PSG-WASO (Wake after sleep onset) ([7]; Week 3 and Week 6, difference with placebo did not reach statistical significance at Week 6): decreasing PSG-WASO
- PSG-NAW (number of awakenings) LS mean ([7]; Week 6, 5 mg): −1.82
- number of brief awakenings (<1 min) ([7]; compared to placebo): decreased the number of brief awakenings
- QoS (quality of sleep) ([7]; in vivo): improved
- REM (rapid eye movement) sleep ([7]; in vivo): not affected
- SWS/WASO+Stage 1 index ([7]; in vivo): increase of SWS/WASO+Stage 1 index
